According to patent US20060049052A1, “Ampholytic buffer having high buffering capacity and high conductivity in isoelectric form” (The Texas A&M University System, priority 2004, published 2006):
Structures can show the parent of a compound that is named as a salt.

How the values were obtained:
[1] = pH of concentrated aqueous solution of the isoelectric buffer after desalting in IET apparatus (equal to pI); assay type: physicochemical; conditions: isoelectric state after IET desalting
Source text: The aqueous solution was desalted and the ampholytic buffer brought to isoelectric state in an IET apparatus. The pH of the concentrated aqueous solution of isoelectric BCPDEAH was 3.8, equal to its pI value. After liophylization, the solid product was characterized by ^1H- and ^13C-NMR. […] The identity and purity of the final product were further confirmed by high resolution ESI-MS. Only signals corresponding to BCPDEAH and its fragment ions are seen.

[2] = Conductivity, pH and buffering capacity of 50 mM solutions of ampholytic buffers; assay type: physicochemical; conditions: 50 mM solution
Method: The conductivities, pH values and buffering capacities of 50 mM solutions of some of the ampholytic buffers of the present invention are listed in Table 1. For comparison purposes, values for histidine (HIS), a widely used low conductivity ampholytic buffer are also included.

[3] = indirect UV detection CE, bare fused silica capillary, 15 kV, T=25, UV 214 nm, BGEs of varied pH
Method: Using a 26 :m I.D. bare fused silica capillary, Lt=26.1 cm, Ld=19.7 cm at 15 kV in positive to negative polarity, T=25 EC, UV detector set at 214 nm, conventional CE was carried out in 20 mM tris(hydroxymethyl) aminomethane (Tris) and 20 mM benzylamine BGEs titrated with pTSA.
Using a 26 :m I.D. bare fused silica capillary, Lt=26.1 cm, Ld=19.7 cm at 15 kV in positive to negative polarity, T=25 EC, and the UV detector set at 214 nm, conventional CE was carried out in 20 mM acetic acid BGEs titrated with imidazole and 20 mM pyridine BGEs titrated with pTSA.

pH of the concentrated aqueous solution of isoelectric form, equal to its pI value [1]	SMILES	Buffering capacity [2] [mM/pH]	Conductivity [2] [mS/m]	pH [2]	pI [3]
3.8	CC[N+](CC)(CCCC(=O)[O-])CCCC(=O)O [BCPDEAH, N,N-bis(carboxypropyl)diethyl ammonium hydroxide, inner salt]	35.7	18.4	4.15	–
–	CN(C)CC(CN(C)C)OS(=O)(=O)O [BDASP, 1,3-bis(N,N-dimethylamino)-2-O-sulfo-propane]	25.0	25.8	7.82	~8.0
–	CCCN(CCC)CC(CN(CCC)CCC)OS(=O)(=O)O [BDPSP, 1,3-bis(dipropylamino)-2-O-sulfo-propane]	–	–	–	8.7
–	O=S(=O)(O)OC(CN1CCOCC1)CN1CCOCC1 [DMSP, 1,3-dimorpholino-2-O-sulfo-propane]	14.7	7.3	5.79	5.8
–	O=S(=O)(O)OC(CN1CCCCC1)CN1CCCCC1 [DPSP, 1,3-dipiperidino-2-O-sulfo-propane]	20.8	18.1	8.35	8.9
–	N[C@@H](Cc1c[nH]cn1)C(=O)O [HIS, histidine, reference compound]	12.5	3.5	7.44	–
